# ChEMBL document CHEMBL1909046, “DrugMatrix in vitro pharmacology data”
# Target: T1, Alpha-1D adrenergic receptor (Homo sapiens, UniProt P25100); note: in other assays of this panel Not Active means under 50% inhibition at 10 µM
# T1 sequence (P25100 whole entry): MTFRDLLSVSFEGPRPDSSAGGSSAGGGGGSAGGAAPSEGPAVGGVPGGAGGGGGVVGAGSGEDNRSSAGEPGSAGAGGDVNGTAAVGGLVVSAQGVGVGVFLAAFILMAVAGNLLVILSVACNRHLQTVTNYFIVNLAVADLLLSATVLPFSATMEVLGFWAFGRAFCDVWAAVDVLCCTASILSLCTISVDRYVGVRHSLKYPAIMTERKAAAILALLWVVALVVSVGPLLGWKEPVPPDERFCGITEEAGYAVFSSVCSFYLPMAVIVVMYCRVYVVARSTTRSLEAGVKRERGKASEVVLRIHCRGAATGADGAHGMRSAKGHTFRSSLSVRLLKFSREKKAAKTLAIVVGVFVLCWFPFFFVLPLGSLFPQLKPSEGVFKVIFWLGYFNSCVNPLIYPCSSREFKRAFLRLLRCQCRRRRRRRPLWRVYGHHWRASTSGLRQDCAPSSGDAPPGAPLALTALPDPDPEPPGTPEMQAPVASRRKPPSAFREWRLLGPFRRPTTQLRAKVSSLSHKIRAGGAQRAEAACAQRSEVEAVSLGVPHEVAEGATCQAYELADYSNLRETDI
# Format: cell membranes, HEK293, Membrane
# Conditions: hek293
row,Compound,IC50
1,CCN1CC(CCN2CCOCC2)C(c2ccccc2)(c2ccccc2)C1=O (centres undefined) [DOXAPRAM],Not Active
2,Cn1c(=O)c2c(ncn2CC2OCCO2)n(C)c1=O [DOXOFYLLINE],Not Active
3,COc1cccc2c1C(=O)c1c(O)c3c(c(O)c1C2=O)C[C@@](O)(C(=O)CO)C[C@@H]3O[C@H]1C[C@H](N)[C@H](O)[C@H](C)O1 [DOXORUBICIN],Not Active
4,COc1cccc2c1C(=O)c1c(O)c3c(c(O)c1C2=O)C[C@@](O)(C(=O)CO)C[C@@H]3O[C@H]1C[C@H](N)[C@@H](O)[C@H](C)O1 [EPIRUBICIN],Not Active
5,C[C@]12CC[C@@H]3c4ccc(OC(=O)c5ccccc5)cc4CC[C@H]3[C@@H]1CC[C@@H]2O [ESTRADIOL BENZOATE],Not Active
6,C[C@]12CC[C@@H]3c4ccc(O)cc4CC[C@H]3[C@@H]1CC[C@@H]2O [ESTRADIOL],Not Active
7,CC[C@@H](CO)NCCN[C@@H](CC)CO [ETHAMBUTOL],Not Active

# Target: Beta-2 adrenergic receptor (Homo sapiens, UniProt P07550)
# Test: DRUGMATRIX: Adrenergic beta2 radioligand binding (ligand: [3H] CGP-12177)
# Format: cell membranes, Membrane
# Conditions: cho; Not Active = under 50% inhibition at 10 µM
# Sequence of Beta-2 adrenergic receptor (P07550 whole entry): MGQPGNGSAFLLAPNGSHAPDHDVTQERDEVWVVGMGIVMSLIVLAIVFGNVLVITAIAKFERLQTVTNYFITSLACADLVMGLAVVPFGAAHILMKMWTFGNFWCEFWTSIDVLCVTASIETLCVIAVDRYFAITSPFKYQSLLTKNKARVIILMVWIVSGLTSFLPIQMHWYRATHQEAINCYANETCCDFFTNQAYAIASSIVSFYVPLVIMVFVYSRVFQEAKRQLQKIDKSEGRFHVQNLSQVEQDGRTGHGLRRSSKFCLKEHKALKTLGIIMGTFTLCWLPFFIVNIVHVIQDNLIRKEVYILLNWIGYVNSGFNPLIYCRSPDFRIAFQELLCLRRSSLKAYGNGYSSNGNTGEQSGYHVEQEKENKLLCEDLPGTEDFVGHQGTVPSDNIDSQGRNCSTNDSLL
row,Compound,IC50
1,CCN1CC(CCN2CCOCC2)C(c2ccccc2)(c2ccccc2)C1=O (centres undefined) [DOXAPRAM],Not Active
2,Cn1c(=O)c2c(ncn2CC2OCCO2)n(C)c1=O [DOXOFYLLINE],Not Active
3,COc1cccc2c1C(=O)c1c(O)c3c(c(O)c1C2=O)C[C@@](O)(C(=O)CO)C[C@@H]3O[C@H]1C[C@H](N)[C@H](O)[C@H](C)O1 [DOXORUBICIN],Not Active
4,COc1cccc2c1C(=O)c1c(O)c3c(c(O)c1C2=O)C[C@@](O)(C(=O)CO)C[C@@H]3O[C@H]1C[C@H](N)[C@@H](O)[C@H](C)O1 [EPIRUBICIN],Not Active
5,C[C@]12CC[C@@H]3c4ccc(OC(=O)c5ccccc5)cc4CC[C@H]3[C@@H]1CC[C@@H]2O [ESTRADIOL BENZOATE],Not Active
6,C[C@]12CC[C@@H]3c4ccc(O)cc4CC[C@H]3[C@@H]1CC[C@@H]2O [ESTRADIOL],Not Active
7,CC[C@@H](CO)NCCN[C@@H](CC)CO [ETHAMBUTOL],Not Active

# Target: Beta-3 adrenergic receptor (Homo sapiens, UniProt P13945)
# Test: DRUGMATRIX: Adrenergic beta3 radioligand binding (ligand: [125I] Cyanopindolol)
# Format: cell membranes, Membrane
# Conditions: hek293; Not Active = under 50% inhibition at 10 µM
# Sequence of Beta-3 adrenergic receptor (P13945 whole entry): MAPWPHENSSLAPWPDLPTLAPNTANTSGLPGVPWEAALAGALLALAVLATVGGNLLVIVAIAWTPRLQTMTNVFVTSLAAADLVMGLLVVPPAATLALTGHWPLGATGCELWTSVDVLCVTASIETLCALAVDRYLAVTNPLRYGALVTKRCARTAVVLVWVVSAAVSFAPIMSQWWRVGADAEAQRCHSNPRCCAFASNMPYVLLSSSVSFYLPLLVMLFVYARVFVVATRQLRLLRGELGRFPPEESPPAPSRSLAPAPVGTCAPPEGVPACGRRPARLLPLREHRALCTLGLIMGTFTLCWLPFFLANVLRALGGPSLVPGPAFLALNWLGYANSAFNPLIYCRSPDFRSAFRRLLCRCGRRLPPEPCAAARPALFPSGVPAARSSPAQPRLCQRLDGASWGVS
row,Compound,IC50
1,CCN1CC(CCN2CCOCC2)C(c2ccccc2)(c2ccccc2)C1=O (centres undefined) [DOXAPRAM],Not Active
2,Cn1c(=O)c2c(ncn2CC2OCCO2)n(C)c1=O [DOXOFYLLINE],Not Active
3,COc1cccc2c1C(=O)c1c(O)c3c(c(O)c1C2=O)C[C@@](O)(C(=O)CO)C[C@@H]3O[C@H]1C[C@H](N)[C@H](O)[C@H](C)O1 [DOXORUBICIN],Not Active
4,COc1cccc2c1C(=O)c1c(O)c3c(c(O)c1C2=O)C[C@@](O)(C(=O)CO)C[C@@H]3O[C@H]1C[C@H](N)[C@@H](O)[C@H](C)O1 [EPIRUBICIN],Not Active
5,C[C@]12CC[C@@H]3c4ccc(OC(=O)c5ccccc5)cc4CC[C@H]3[C@@H]1CC[C@@H]2O [ESTRADIOL BENZOATE],Not Active
6,C[C@]12CC[C@@H]3c4ccc(O)cc4CC[C@H]3[C@@H]1CC[C@@H]2O [ESTRADIOL],Not Active
7,CC[C@@H](CO)NCCN[C@@H](CC)CO [ETHAMBUTOL],Not Active

# Target: 5-hydroxytryptamine receptor 6 (Homo sapiens, UniProt P50406); note: in other assays of this panel Not Active means under 50% inhibition at 10 µM
# Format: cell membranes, HeLa, Membrane
# Conditions: hela
# Sequence of 5-hydroxytryptamine receptor 6 (P50406 whole entry): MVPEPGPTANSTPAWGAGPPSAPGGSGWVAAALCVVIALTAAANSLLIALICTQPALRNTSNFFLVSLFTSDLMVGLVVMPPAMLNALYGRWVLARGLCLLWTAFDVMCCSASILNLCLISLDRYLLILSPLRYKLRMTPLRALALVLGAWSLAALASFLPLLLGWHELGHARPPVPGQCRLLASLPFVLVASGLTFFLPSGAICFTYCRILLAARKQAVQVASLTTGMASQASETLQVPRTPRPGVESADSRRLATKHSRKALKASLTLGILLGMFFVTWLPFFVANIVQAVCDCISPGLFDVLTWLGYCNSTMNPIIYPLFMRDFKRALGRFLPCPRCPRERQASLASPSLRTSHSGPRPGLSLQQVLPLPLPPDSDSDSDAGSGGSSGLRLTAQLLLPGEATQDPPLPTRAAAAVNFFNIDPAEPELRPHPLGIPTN
row,Compound,IC50
1,CCN1CC(CCN2CCOCC2)C(c2ccccc2)(c2ccccc2)C1=O (centres undefined) [DOXAPRAM],Not Active
2,Cn1c(=O)c2c(ncn2CC2OCCO2)n(C)c1=O [DOXOFYLLINE],Not Active
3,COc1cccc2c1C(=O)c1c(O)c3c(c(O)c1C2=O)C[C@@](O)(C(=O)CO)C[C@@H]3O[C@H]1C[C@H](N)[C@H](O)[C@H](C)O1 [DOXORUBICIN],Not Active
4,COc1cccc2c1C(=O)c1c(O)c3c(c(O)c1C2=O)C[C@@](O)(C(=O)CO)C[C@@H]3O[C@H]1C[C@H](N)[C@@H](O)[C@H](C)O1 [EPIRUBICIN],Not Active
5,C[C@]12CC[C@@H]3c4ccc(OC(=O)c5ccccc5)cc4CC[C@H]3[C@@H]1CC[C@@H]2O [ESTRADIOL BENZOATE],Not Active
6,C[C@]12CC[C@@H]3c4ccc(O)cc4CC[C@H]3[C@@H]1CC[C@@H]2O [ESTRADIOL],Not Active
7,CC[C@@H](CO)NCCN[C@@H](CC)CO [ETHAMBUTOL],Not Active

# Target: C-C chemokine receptor type 5 (Homo sapiens, UniProt P51681); note: in other assays of this panel Not Active means under 50% inhibition at 10 µM
# Format: cell membranes, HEK293, Membrane
# Conditions: hek293
# Sequence of C-C chemokine receptor type 5 (P51681 whole entry): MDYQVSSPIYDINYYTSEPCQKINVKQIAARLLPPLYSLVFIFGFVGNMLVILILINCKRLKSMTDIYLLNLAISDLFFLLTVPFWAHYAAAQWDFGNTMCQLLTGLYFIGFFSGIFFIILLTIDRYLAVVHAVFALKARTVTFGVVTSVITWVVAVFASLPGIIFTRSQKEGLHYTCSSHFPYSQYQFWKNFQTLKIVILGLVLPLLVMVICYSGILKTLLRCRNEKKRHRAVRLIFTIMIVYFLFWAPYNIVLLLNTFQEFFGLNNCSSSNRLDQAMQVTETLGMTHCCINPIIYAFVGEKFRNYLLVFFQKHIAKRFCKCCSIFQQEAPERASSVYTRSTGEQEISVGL
row,Compound,IC50
1,CCN1CC(CCN2CCOCC2)C(c2ccccc2)(c2ccccc2)C1=O (centres undefined) [DOXAPRAM],Not Active
2,Cn1c(=O)c2c(ncn2CC2OCCO2)n(C)c1=O [DOXOFYLLINE],Not Active
3,COc1cccc2c1C(=O)c1c(O)c3c(c(O)c1C2=O)C[C@@](O)(C(=O)CO)C[C@@H]3O[C@H]1C[C@H](N)[C@H](O)[C@H](C)O1 [DOXORUBICIN],Not Active
4,COc1cccc2c1C(=O)c1c(O)c3c(c(O)c1C2=O)C[C@@](O)(C(=O)CO)C[C@@H]3O[C@H]1C[C@H](N)[C@@H](O)[C@H](C)O1 [EPIRUBICIN],Not Active
5,C[C@]12CC[C@@H]3c4ccc(OC(=O)c5ccccc5)cc4CC[C@H]3[C@@H]1CC[C@@H]2O [ESTRADIOL BENZOATE],Not Active
6,C[C@]12CC[C@@H]3c4ccc(O)cc4CC[C@H]3[C@@H]1CC[C@@H]2O [ESTRADIOL],Not Active
7,CC[C@@H](CO)NCCN[C@@H](CC)CO [ETHAMBUTOL],Not Active

# Target: T2, Muscarinic acetylcholine receptor M5 (Homo sapiens, UniProt P08912); note: in other assays of this panel Not Active means under 50% inhibition at 10 µM
# T2 sequence (P08912 whole entry): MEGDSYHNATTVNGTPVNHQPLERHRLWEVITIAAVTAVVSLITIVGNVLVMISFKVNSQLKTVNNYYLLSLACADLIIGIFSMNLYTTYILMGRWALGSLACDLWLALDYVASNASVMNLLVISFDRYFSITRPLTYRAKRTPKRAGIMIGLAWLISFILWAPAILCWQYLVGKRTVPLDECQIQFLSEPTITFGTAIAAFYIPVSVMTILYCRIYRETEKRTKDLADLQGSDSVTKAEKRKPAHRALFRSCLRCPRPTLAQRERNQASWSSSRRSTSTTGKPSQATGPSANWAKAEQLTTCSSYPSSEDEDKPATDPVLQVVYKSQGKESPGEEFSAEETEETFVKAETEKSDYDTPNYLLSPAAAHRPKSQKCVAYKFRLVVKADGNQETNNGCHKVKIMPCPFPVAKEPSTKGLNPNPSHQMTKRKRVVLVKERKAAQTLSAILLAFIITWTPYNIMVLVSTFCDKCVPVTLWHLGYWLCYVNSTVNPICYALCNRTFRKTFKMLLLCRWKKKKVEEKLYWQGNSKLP
# Format: cell membranes, CHO-K1, Membrane
# Conditions: cho-k1
row,Compound,IC50
1,CCN1CC(CCN2CCOCC2)C(c2ccccc2)(c2ccccc2)C1=O (centres undefined) [DOXAPRAM],Not Active
2,Cn1c(=O)c2c(ncn2CC2OCCO2)n(C)c1=O [DOXOFYLLINE],Not Active
3,COc1cccc2c1C(=O)c1c(O)c3c(c(O)c1C2=O)C[C@@](O)(C(=O)CO)C[C@@H]3O[C@H]1C[C@H](N)[C@H](O)[C@H](C)O1 [DOXORUBICIN],Not Active
4,COc1cccc2c1C(=O)c1c(O)c3c(c(O)c1C2=O)C[C@@](O)(C(=O)CO)C[C@@H]3O[C@H]1C[C@H](N)[C@@H](O)[C@H](C)O1 [EPIRUBICIN],Not Active
5,C[C@]12CC[C@@H]3c4ccc(OC(=O)c5ccccc5)cc4CC[C@H]3[C@@H]1CC[C@@H]2O [ESTRADIOL BENZOATE],Not Active
6,C[C@]12CC[C@@H]3c4ccc(O)cc4CC[C@H]3[C@@H]1CC[C@@H]2O [ESTRADIOL],Not Active
7,CC[C@@H](CO)NCCN[C@@H](CC)CO [ETHAMBUTOL],Not Active

# Target: T3, Nitric oxide synthase, inducible (Mus musculus, UniProt P29477)
# T3 sequence (P29477 whole entry): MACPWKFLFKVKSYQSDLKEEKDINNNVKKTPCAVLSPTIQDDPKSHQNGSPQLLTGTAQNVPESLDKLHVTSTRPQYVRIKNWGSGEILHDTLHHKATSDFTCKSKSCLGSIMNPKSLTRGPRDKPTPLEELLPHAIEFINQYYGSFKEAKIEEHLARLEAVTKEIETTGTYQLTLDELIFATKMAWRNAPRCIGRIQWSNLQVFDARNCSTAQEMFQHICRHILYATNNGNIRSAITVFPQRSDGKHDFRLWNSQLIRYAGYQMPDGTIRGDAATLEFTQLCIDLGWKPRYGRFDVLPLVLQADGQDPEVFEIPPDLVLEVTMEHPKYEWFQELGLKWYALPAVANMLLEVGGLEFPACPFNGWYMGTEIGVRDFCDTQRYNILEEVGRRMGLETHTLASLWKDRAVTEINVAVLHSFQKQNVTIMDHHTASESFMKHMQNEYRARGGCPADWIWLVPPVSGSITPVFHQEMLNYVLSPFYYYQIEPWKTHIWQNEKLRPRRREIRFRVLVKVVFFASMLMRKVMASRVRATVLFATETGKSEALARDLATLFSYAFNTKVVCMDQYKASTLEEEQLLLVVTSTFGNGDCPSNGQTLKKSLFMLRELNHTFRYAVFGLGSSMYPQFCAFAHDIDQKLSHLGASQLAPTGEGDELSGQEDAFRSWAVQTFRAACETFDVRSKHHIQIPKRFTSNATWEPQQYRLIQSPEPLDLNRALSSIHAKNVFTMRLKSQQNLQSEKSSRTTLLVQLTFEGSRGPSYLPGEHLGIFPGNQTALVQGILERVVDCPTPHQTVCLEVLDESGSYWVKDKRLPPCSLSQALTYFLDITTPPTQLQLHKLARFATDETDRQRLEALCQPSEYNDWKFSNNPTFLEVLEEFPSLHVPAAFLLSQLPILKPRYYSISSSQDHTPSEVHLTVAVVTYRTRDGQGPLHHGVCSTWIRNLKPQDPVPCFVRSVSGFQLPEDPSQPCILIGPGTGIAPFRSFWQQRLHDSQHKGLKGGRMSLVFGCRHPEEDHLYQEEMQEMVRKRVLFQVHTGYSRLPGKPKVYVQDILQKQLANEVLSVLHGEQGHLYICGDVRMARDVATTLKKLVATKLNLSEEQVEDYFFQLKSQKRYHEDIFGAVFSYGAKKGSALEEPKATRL
# Set-up: species or system Escherichia coli
# Conditions: not given
row,Compound,IC50
1,CCN1CC(CCN2CCOCC2)C(c2ccccc2)(c2ccccc2)C1=O (centres undefined) [DOXAPRAM],Not Active
2,Cn1c(=O)c2c(ncn2CC2OCCO2)n(C)c1=O [DOXOFYLLINE],Not Active
3,COc1cccc2c1C(=O)c1c(O)c3c(c(O)c1C2=O)C[C@@](O)(C(=O)CO)C[C@@H]3O[C@H]1C[C@H](N)[C@H](O)[C@H](C)O1 [DOXORUBICIN],Not Active
4,COc1cccc2c1C(=O)c1c(O)c3c(c(O)c1C2=O)C[C@@](O)(C(=O)CO)C[C@@H]3O[C@H]1C[C@H](N)[C@@H](O)[C@H](C)O1 [EPIRUBICIN],Not Active
5,C[C@]12CC[C@@H]3c4ccc(OC(=O)c5ccccc5)cc4CC[C@H]3[C@@H]1CC[C@@H]2O [ESTRADIOL BENZOATE],Not Active
6,C[C@]12CC[C@@H]3c4ccc(O)cc4CC[C@H]3[C@@H]1CC[C@@H]2O [ESTRADIOL],Not Active
7,CC[C@@H](CO)NCCN[C@@H](CC)CO [ETHAMBUTOL],Not Active
